Data taken from US12617837B2, “Composition for use in treatment of allergic diseases” (UNIVERSITY OF TSUKUBA, priority 2019, dated 2026).

Experiments:
mouse Clec10a = biological target: T1, mouse Clec10a (Mus musculus, UniProt P49300); assay: Mouse Clec10a-CD3ζ NFAT-GFP reporter cell assay; type: cell-based; conditions: for GFP expression in mouse Clec10a reporter cells: stimulation with coated plates, 18 hours, flow cytometry
T1 construct: an extracellular and transmembrane portions of Clec10a fused to a cytoplasmic portion of CD3; expressed in transfected cells; host or cells: 2B4-NFAT-GFP reporter cells, pMXs-puro retroviral vector
T1 sequence (P49300 57-304 limits assumed): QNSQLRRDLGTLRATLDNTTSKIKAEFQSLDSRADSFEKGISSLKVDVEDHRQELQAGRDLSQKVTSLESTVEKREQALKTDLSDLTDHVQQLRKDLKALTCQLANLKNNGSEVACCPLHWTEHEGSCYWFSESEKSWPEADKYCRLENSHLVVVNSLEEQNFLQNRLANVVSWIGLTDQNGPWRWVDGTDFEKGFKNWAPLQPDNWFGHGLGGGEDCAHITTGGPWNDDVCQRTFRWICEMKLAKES
Description: (§1) The intracellular region of human CD3ζ was obtained from a vector provided by LL Lanier (University of California, San Francisco). The extracellular region of mouse or human Clec10a or the extracellular region of human Asgr1 was subcloned into a pMXs-puro retroviral vector. 2B4-NFAT-GFP reporter cells were provided from H. Arase (University of Osaka). 2B4-NFAT-GFP reporter cells stably expressing mouse or human Clec10a were made as described previously. The reporter cells were incubated for 18 hours in the presence or absence of anti-Clec10a mAb, Lewis X (GlycoTech), Lewes Y (GlycoTech), galactose (Sigma-Aldrich), glucose (Sigma-Aldrich) or mannose (Sigma-Aldrich). The reporter cells were also cultured on a galactosidase (R & D Systems, 5704 GH or 5549 GH) or glucosidase (R & D Systems, 8329-GH), or Clec10 ligand-coated plate, or an HDM extract-coated plate treated with size-fractionated Clec10a ligand or untreated. Activation of NFAT-GFP was monitored by flow cytometry.
To test whether Clec10a recognized glycosylated proteins contained in HDM, NFAT-GFP reporter cells (Clec10a reporter cells) were made which expressed chimeric fusion proteins inch ling an extracellular and transmembrane portions of Clec10a fused to a cytoplasmic portion of CD3.

human IgG1 = assay: Glycan microarray probed with human IgG1 (control of Table 7); type: binding
Clec10a-Fc [1] = biological target: T2, Clec10a-Fc (Mus musculus, UniProt P49300); assay: ELISA of Clec10a-Fc binding to glycan-coated plates; conditions: plates coated with Lewis X or Lewis Y
T2 construct: cloning the extracellular region of mouse Clec10a into a pME18S expression vector; made in house; host or cells: HEK293T cells
T2 sequence (P49300 57-304 limits assumed): T1 sequence (P49300 57-304 limits assumed)
Description: A mouse Clec10a chimeric construct (Clec10a-Fc) was made by cloning the extracellular region of mouse Clec10a into a pME18S expression vector containing the Fc region of human IgG1. Clec10a-Fc was transfected into HEK293T cells using Lipofectamine 2000 (Thermo Fisher Scientific) and the medium was then replaced with GIT medium (KOHJIN BIO). Clec10a-Fc was purified from the culture supernatants using protein a agarose (Bio-Rad Laboratories).
An ELISA system with Clec10a applied to glycan-coated plates was constructed by a routine method to study the binding of each glycan with Clec10a. In the ELISA system, with the expectation that a multivalent effect is achieved by binding a plurality of glycans to the polymeric scaffold, the glycans were bound to the polymeric scaffold and presented to Clec10a. […]
A PBS solution containing 1 μg/well, 0.1 μg/well, or 0.01 μg/well of the polymeric scaffold presenting the glycans at the location “Sugar” of the above formula as described above (the modification rate was 20% as per the above formula) was introduced into a 96 well plate, and incubation was performed overnight at room temperature so that the wells were coated with the glycans. […] After 1-hour incubation at room temperature, the unbound Clec10a-Fc was washed, and Clec10a-Fc bound to the plate surface was quantified with peroxidase-labeled anti-Fc antibodies. […]

Clec10a-Fc [2] = biological target: T2, Clec10a-Fc; assay: Sugar conjugate (glycan) microarray analysis of Clec10a-Fc (Table 7); type: binding; conditions: for Signal value, Clec10a-Fc: glycan microarray probed with Clec10a-Fc; for Signal value, Clec10a-Fc with EDTA: glycan microarray probed with Clec10a-Fc with EDTA
Description: A sugar conjugate microarray containing 98 sugar conjugates (Table 3) was prepared according to a known method using a non-contact microarray printing robot (MicroSys 4000; Genomic Solutions).

BMMP = assay: Immunoprecipitation/immunoblot of SHP-1 recruitment to Clec10a in HDM-stimulated BMMP; type: cell-based, mouse; conditions: BMMP pretreated with Syk inhibitor, HDM extract 100 μg/mL
Description: To analyze association of Clec10a with Syk or SHP-1, BMMP was pretreated in the presence or absence of […] Syk inhibitor IV (Merck, 574714) at 37° C. for 30 minutes and stimulated with an HDM extract (100 μg/mL) at 37° C. for 0 min, 10 min, or 30 min. BMMP was lysed with a 0.2% digitonin buffer and immunoprecipitated with anti-Clec10a mAb. An immune precipitate was transferred onto a PVDF membrane as described above and immunoblotted using anti-Syk antibodies, anti-SHP-1 antibodies, or anti-Clec10a antibodies, and then detected with HRP-labeled anti-rabbit IgG antibodies or goat IgG antibodies. All proteins were detected using enhanced chemiluminescence (Thermo Fisher Scientific).

[3] = system: skin inflammation against lipopolysaccharides (LPS); assay: LPS-induced skin inflammation, intradermal LPS with polymeric scaffold presenting T antigen; type: in vivo, mouse; conditions: 50 μg LPS and 20 μg T antigen scaffold intradermal daily, Day 5
Description: It was examined whether one of them, T antigen, could suppress skin inflammation against lipopolysaccharides (LPS). The polymeric scaffolds presenting 50 μg LPS and 20 μg T antigen were intradermally injected in the mouse back daily and the epidermal thickness was observed on Day 5. […] In the Clec10a-knockout mice, the epidermal thickness was equal to or greater than that in the WT.

human Clec10a = biological target: T3, human Clec10a (Homo sapiens, UniProt Q8IUN9); assay: Human Clec10a-CD3ζ NFAT-GFP reporter cell assay; type: cell-based; conditions: addition of sugar, HDM-coated plates
T3 construct: The extracellular region of mouse or human Clec10a or the extracellular region of human Asgr1 was subcloned; expressed in transfected cells; host or cells: 2B4-NFAT-GFP reporter cells, pMXs-puro retroviral vector
T3 sequence (Q8IUN9 61-316 limits assumed): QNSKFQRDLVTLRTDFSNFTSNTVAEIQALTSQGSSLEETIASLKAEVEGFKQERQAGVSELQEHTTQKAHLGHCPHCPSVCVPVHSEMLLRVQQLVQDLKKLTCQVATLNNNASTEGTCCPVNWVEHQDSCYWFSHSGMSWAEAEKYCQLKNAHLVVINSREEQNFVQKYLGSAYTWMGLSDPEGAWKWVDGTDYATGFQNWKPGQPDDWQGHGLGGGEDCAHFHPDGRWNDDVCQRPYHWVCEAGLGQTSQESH
Description: as §1
(§2) The hemITAM sequence (YxxL) was not found in human Clec10a and could only be found in human Asgr1 (see panel c in FIG. 4). […] Upon confirmation of protein expression, human Asgr1 expressed in MP in the human skin, similarly to Clec10a expression in the mouse skin (see panel e in FIG. 4). […]

human Asgr1 = biological target: T4, human Asgr1 (Homo sapiens, UniProt P07306); assay: Human Asgr1-CD3ζ NFAT-GFP reporter cell assay; type: cell-based
T4 construct: the extracellular region of human Asgr1 was subcloned into a pMXs-puro retroviral vector; expressed in transfected cells
T4 sequence (P07306 62-291 limits assumed): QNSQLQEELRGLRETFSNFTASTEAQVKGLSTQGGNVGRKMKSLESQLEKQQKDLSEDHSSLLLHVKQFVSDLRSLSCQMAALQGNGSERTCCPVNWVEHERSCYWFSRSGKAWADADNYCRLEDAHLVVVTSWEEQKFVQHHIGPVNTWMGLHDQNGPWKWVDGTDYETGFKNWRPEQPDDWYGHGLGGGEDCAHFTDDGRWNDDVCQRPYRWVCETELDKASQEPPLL
Description: as §1, §2

| Compound | GFP expression in mouse Clec10a reporter cells (mouse Clec10a) | Signal value, human IgG1 (human IgG1) | Signal value, Clec10a-Fc (Clec10a-Fc [2]) | Signal value, Clec10a-Fc with EDTA (Clec10a-Fc [2]) | also measured |
| --- | --- | --- | --- | --- | --- |
| CC(=O)N[C@@H]1[C@@H](O[C@@H]2O[C@@H](C)[C@@H](O)[C@@H](O)[C@@H]2O)[C@H](O[C@@H]2O[C@H](CO)[C@H](O)[C@H](O)[C@H]2O)[C@@H](CO)O[C@H]1O [Lewis X, reference compound] | expressed GFP | – | – | – | – |
| CC(=O)N[C@@H]1[C@@H](O[C@@H]2O[C@@H](C)[C@@H](O)[C@@H](O)[C@@H]2O)[C@H](O[C@@H]2O[C@H](CO)[C@H](O)[C@H](O)[C@H]2O[C@@H]2O[C@@H](C)[C@@H](O)[C@@H](O)[C@@H]2O)[C@@H](CO)O[C@H]1O [Lewis Y, reference compound] | did not respond | 0 | 0 | 0 | Binding of Clec10a-Fc to coated plates (ELISA) (Clec10a-Fc [1]): not bound |
| COc1ccc(-c2cc3nccn3c(Nc3ncccc3C(N)=O)n2)cc1OC [Syk inhibitor IV] | – | – | – | – | Recruitment of HDM-induced SHP-1 to Clec10a (BMMP): suppressed the recruitment of HDM-induced SHP-1 to Clec10a |
| CC(=O)N[C@H]1C(O)O[C@H](CO)[C@H](O)[C@@H]1O[C@@H]1O[C@H](CO)[C@H](O)[C@H](O)[C@H]1O (some centres unmarked) [T antigen, Galβ(1-3)GalNAc] | activated Clec10a in a dose-dependent manner | – | – | – | Epidermal thickness ([3]; Clec10a knockout mice): epidermal thickness suppressive effect of the T antigen was not observed; Epidermal thickness ([3]; WT mice): increase in thickness of the skin by LPS was suppressed; Binding of Clec10a-Fc in glycan microarray (Clec10a-Fc [2]; Clec10a-Fc 10 μg/mL): binds |
| O=C[C@H](O)[C@@H](O)[C@@H](O)[C@H](O)CO [galactose] | – | – | – | – | Inhibition of HDM-induced GFP expression in human Clec10a reporter cells (human Clec10a): only in the Asgr1 reporter cells; Inhibition of HDM-induced GFP expression in mouse Clec10a reporter cells (mouse Clec10a; pretreatment of the reporter cells, HDM-coated plates): inhibited GFP expression; Offset of Clec10a ligand-induced activation of human Asgr1 reporter cells (human Asgr1; addition of galactose to the system): offset, in a concentration dependent manner; Inhibition of HDM-induced GFP expression in human Asgr1 reporter cells (human Asgr1; addition of sugar, HDM-coated plates): inhibited the expression of GFP induced by HDM |
| Galβ 1-3(Fucα 1-4)GlcNAcβ 1-PAA [LeA] | activated Clec10a in a dose-dependent manner | 0 | 5532 | 0 | – |
| Galβ.1-4(Fucα 1-3)GlcNAcβ 1-PAA [LeX] | activated Clec10a in a dose-dependent manner | 0 | 2535 | 0 | – |
